In brackets after ≈: the same amount, converted by molar mass. Like-named read-outs stand apart in the source and are kept apart here.
Experiments:
[1] = background; limits use; cited from earlier work
L-1210 leukemia = experiment: Antineoplastic activity against L-1210 leukemia (single i.v. dose, survival vs control mice); assay type: in vivo, BDF1 male mice; conditions: single i.v. dose 24 hours after i.v. implant of 10^5 L-1210 cells; at optimum dose (Adriamycin 33.6, Ex. XII 27, 4-Demethoxydaunorubicin 4.5 μmoles/kg); ten mice per group
Procedure: The antineoplastic activity of the compounds of this invention was first established against L-1210 leukemia. The relative activities against the L-1210 leukemia and the L cell cytotoxicity was determined and compared to that of adriamycin.
Donor mice were implanted with L-1210 leukemia cells i.p. On the sixth day following implant, the mice were sacrificed. Tumor cells were collected from the peritoneal cavity, suspended in saline solution, and 10^5 cells per mouse were implanted i.v. into BDF1 male mice weighing 18-20 grams. Ten mice per treatment group were employed and the day of implantation considered as day 0. A single dose of test compound was administered by i.v. injection 24 hours following the implant of L-1210 tumor cells. The animals were observed and the survival pattern was compared with that of control mice which received the same tumor implant but were not treated with drug. Results are presented as %ILS (increase in life span over control animals) in Table 3 below.

L-cells = experiment: L-cell cytotoxicity; assay type: cell-based; conditions: 48 h
Procedure: Expotentially growing L-cells were treated with dilutions of Compound XII and adriamycin and ID50 (concentration of compounds giving 50% inhibition of cell growth) measured after 48 hours with the following results.

P-388 leukemias = experiment: Activity against P-388 leukemia by oral or intraperitoneal administration; assay type: in vivo
L-1210 leukemias = experiment: Activity against L-1210 leukemia by oral or intraperitoneal administration; assay type: in vivo
[2] = administered intraperitoneally, compared with intravenous

SMILES	cardiac toxicity [1]	% ILS (increase in life span over control animals) (L-1210 leukemia)	Survivors at day 60 (L-1210 leukemia)	IC50 (L-cells; read-out: ID50 (concentration of compounds giving 50% inhibition of cell growth), Ex. 19, exponentially growing L-cells)	IC50 (L-cells; read-out: ID50 (concentration of compounds giving 50% inhibition of cell growth), Ex. 20, exponentially growing L-cells)	activity against P-388 leukemia (P-388 leukemias; [2])	activity against P-388 leukemia (P-388 leukemias; administered orally)	IC50 (L-cells; Ex. 19, exponentially growing L-cells, read-out: ID50 (concentration of compounds giving 50% inhibition of cell growth))	IC50 (L-cells; Ex. 20, exponentially growing L-cells, read-out: ID50 (concentration of compounds giving 50% inhibition of cell growth))	activity against L-1210 leukemia (L-1210 leukemias; [2])	activity against L-1210 leukemia (L-1210 leukemias; administered orally)
COc1cccc2c1C(=O)c1c(O)c3c(c(O)c1C2=O)C[C@@](O)(C(=O)CO)C[C@@H]3O[C@H]1C[C@H](N)[C@H](O)[C@H](C)O1 [Adriamycin]	cardiac toxicity	100%	0	0.063 µg/mL (≈ 0.116 µM)	0.1 µg/mL (≈ 0.184 µM)						
CC(=O)[C@]1(O)Cc2c(O)c3c(c(O)c2[C@@H](O[C@H]2C[C@H](N)[C@H](O)[C@H](C)O2)C1)C(=O)c1ccccc1C3=O [4-Demethoxydaunorubicin]		83%	0								
CC(=O)[C@]1(O)Cc2c(N)c3c(c(O)c2[C@@H](O[C@H]2C[C@H](N)[C@H](O)[C@H](C)O2)C1)C(=O)c1ccccc1C3=O [Compound XII, cis-9-acetyl-11-amino-7S-[(3-amino-2,3,6-trideoxy-α-L-lyxo-hexopyranosyl)oxy]-7,8,9,10-tetrahydro-6,9-dihydroxy-5,12-naphthacenedione chloride]		96%	0			less active	inactive	0.01 µg/mL	0.015 µg/mL	less active	inactive

Source: patent US4348388A, “11-Amino-11-deoxydaunorubicin and analogs” (G.D. Searle & Co., priority 1980, dated 1982)
